Results published in ChEMBL document CHEMBL1201861, “Genomics of Drug Sensitity in Cancer screening data, Wellcome Trust Sanger Institute”.

How the values were obtained:
Assay type in all cases: functional, cell-based
COR-L105 = test: cells; settings: Homo sapiens
Description: SANGER: Inhibition of human COR-L105 cell growth in a cell viability assay.

CP50-MEL-B = test: cells; settings: Homo sapiens;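 also: growth inhibition of the human cell line, measured with a cell viability read-out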
Description: SANGER: Inhibition of human CP50-MEL-B cell growth in a cell viability assay.

DBTRG-05MG = test: cells; settings: Homo sapiens;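 also: cell viability assay measuring growth inhibition of human DBTRG-05MG cells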
Description: SANGER: Inhibition of human DBTRG-05MG cell growth in a cell viability assay.

DMS-273 = test: cells; settings: Homo sapiens
Description: SANGER: Inhibition of human DMS-273 cell growth in a cell viability assay.

DOK = test: cells; settings: Homo sapiens;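 also: cell viability assay read-out, values reflect inhibition of cell growth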
Description: SANGER: Inhibition of human DOK cell growth in a cell viability assay.

EHEB = test: cells; settings: Homo sapiens;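 also: growth inhibition of human EHEB cells, read out with a cell viability assay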
Description: SANGER: Inhibition of human EHEB cell growth in a cell viability assay.

FTC-133 = test: cells; settings: Homo sapiens
G-361 = test: cells; settings: Homo sapiens
HCC1395 = test: cells; settings: Homo sapiens;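 also: growth inhibition of HCC1395 cells, read out by a cell viability assay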
Description: SANGER: Inhibition of human HCC1395 cell growth in a cell viability assay.

Hs-578T = test: cells; settings: Homo sapiens
Description: SANGER: Inhibition of human Hs-578-T cell growth in a cell viability assay.

KYSE-140 = test: cells; settings: Homo sapiens;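 also: cell viability assay measuring growth inhibition in human KYSE-140 cells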
Description: SANGER: Inhibition of human KYSE-140 cell growth in a cell viability assay.

LN-405 = test: cells; settings: Homo sapiens
Description: SANGER: Inhibition of human LN-405 cell growth in a cell viability assay.

LU-99A = test: cells; settings: Homo sapiens;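 also: growth inhibition of LU-99A cells, read out with a cell viability assay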
Description: SANGER: Inhibition of human LU-99A cell growth in a cell viability assay.

MDA-MB-453 = test: cells; settings: Homo sapiens
Description: SANGER: Inhibition of human MDA-MB-453 cell growth in a cell viability assay.

MHH-CALL-2 = test: cells; settings: Homo sapiens;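 also: growth inhibition of the cell line, read out in a cell viability assay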
Description: SANGER: Inhibition of human MHH-CALL-2 cell growth in a cell viability assay.

MHH-ES-1 = test: cells; settings: Homo sapiens
Description: SANGER: Inhibition of human MHH-ES-1 cell growth in a cell viability assay.

MKN-28 = test: cells; settings: Homo sapiens;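 also: cell viability assay read-out, IC50 reflects suppression of growth of human MKN-28 cells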
Description: SANGER: Inhibition of human MKN28 cell growth in a cell viability assay.

MKN-7 = test: cells; settings: Homo sapiens;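 also: growth inhibition of MKN-7 cells, read out with a cell viability assay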
Description: SANGER: Inhibition of human MKN7 cell growth in a cell viability assay.

MRK-nu-1 = test: cells; settings: Homo sapiens;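 also: cell viability assay measuring growth suppression of human MRK-nu-1 cells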
Description: SANGER: Inhibition of human MRK-nu-1 cell growth in a cell viability assay.

NCCIT = test: SANGER: Inhibition of human NCCIT cell growth in a cell viability assay.
NCI-H1436 = test: cells; settings: Homo sapiens;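 also: growth suppression of human NCI-H1436 cells, determined with a cell viability readout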
Description: SANGER: Inhibition of human NCI-H1436 cell growth in a cell viability assay.

NCI-H1573 = test: cells; settings: Homo sapiens;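 also: growth inhibition of NCI-H1573 cells, read out with a cell viability assay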
Description: SANGER: Inhibition of human NCI-H1573 cell growth in a cell viability assay.

NCI-H1651 = test: cells; settings: Homo sapiens;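 also: Read-out is a cell viability assay, with IC50 expressing inhibition of NCI-H1651 cell growth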
Description: SANGER: Inhibition of human NCI-H1651 cell growth in a cell viability assay.

NCI-H1694 = test: cells; settings: Homo sapiens;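 also: cell viability assay measuring inhibition of growth in human NCI-H1694 cells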
Description: SANGER: Inhibition of human NCI-H1694 cell growth in a cell viability assay.

NCI-H187 = test: cells; settings: Homo sapiens;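 also: growth inhibition of NCI-H187 cells, read out as cell viability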
Description: SANGER: Inhibition of human NCI-H187 cell growth in a cell viability assay.

NCI-H1993 = test: cells; settings: Homo sapiens;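 also: growth inhibition of the cancer cell line, assessed with a cell viability assay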
Description: SANGER: Inhibition of human NCI-H1993 cell growth in a cell viability assay.

NCI-H2030 = test: cells; settings: Homo sapiens;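 also: growth inhibition of human NCI-H2030 cells, read out by a cell viability assay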
Description: SANGER: Inhibition of human NCI-H2030 cell growth in a cell viability assay.

NCI-H2342 = test: cells; settings: Homo sapiens;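 also: growth inhibition of the cancer cell line, determined with a cell viability assay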
Description: SANGER: Inhibition of human NCI-H2342 cell growth in a cell viability assay.

NCI-H520 = test: cells; settings: Homo sapiens;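 also: growth inhibition of NCI-H520 cells, measured by a cell viability assay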
Description: SANGER: Inhibition of human NCI-H520 cell growth in a cell viability assay.

NCI-H524 = test: cells; settings: Homo sapiens;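 also: growth inhibition of human NCI-H524 cells, read out through a cell viability assay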
Description: SANGER: Inhibition of human NCI-H524 cell growth in a cell viability assay.

NCI-H661 = test: cells; settings: Homo sapiens;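 also: cell viability assay read-out, IC50 being the concentration that inhibits growth of the cells by half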
Description: SANGER: Inhibition of human NCI-H661 cell growth in a cell viability assay.

NCI-H716 = test: cells; settings: Homo sapiens;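 also: growth inhibition of human NCI-H716 cells, measured by a cell viability assay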
Description: SANGER: Inhibition of human NCI-H716 cell growth in a cell viability assay.

NUGC-3 = test: cells; settings: Homo sapiens;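 also: growth inhibition of human NUGC-3 cells, read out with a cell viability assay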
Description: SANGER: Inhibition of human NUGC-3 cell growth in a cell viability assay.

OE33 = test: cells; settings: Homo sapiens;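 also: growth inhibition of human OE33 cells, measured by a cell viability assay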
Description: SANGER: Inhibition of human OE33 cell growth in a cell viability assay.

Panc1005 = test: cells; settings: Homo sapiens;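 also: growth inhibition of human PANC-10-05 cells, measured by a cell viability assay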
Description: SANGER: Inhibition of human PANC-10-05 cell growth in a cell viability assay.

REH = test: cells; settings: Homo sapiens;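 also: growth inhibition of REH cells determined with a cell viability read-out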
Description: SANGER: Inhibition of human REH cell growth in a cell viability assay.

RL = test: cells; settings: Homo sapiens
Description: SANGER: Inhibition of human RL cell growth in a cell viability assay.

Raji = test: cells; settings: Homo sapiens;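 also: cell viability assay measuring inhibition of Raji cell growth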
Description: SANGER: Inhibition of human Raji cell growth in a cell viability assay.

SBC-5 = test: cells; settings: Homo sapiens;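 also: cell viability assay read-out, IC50 is the concentration that inhibits growth of the cells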
Description: SANGER: Inhibition of human SBC-5 cell growth in a cell viability assay.

SK-MEL-28 = test: cells; settings: Homo sapiens;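 also: growth inhibition of human SK-MEL-28 cells, read out with a cell viability assay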
Description: SANGER: Inhibition of human SK-MEL-28 cell growth in a cell viability assay.

SK-MM-2 = test: cells; settings: Homo sapiens;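 also: growth inhibition of human SK-MM-2 cells, read out with a cell viability assay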
Description: SANGER: Inhibition of human SK-MM-2 cell growth in a cell viability assay.

SKG-IIIa = test: cells; settings: Homo sapiens;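 also: cell growth inhibition, read out with a cell viability assay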
Description: SANGER: Inhibition of human SKG-IIIa cell growth in a cell viability assay.

SU-DHL-1 = test: SANGER: Inhibition of human SU-DHL-1 cell growth in a cell viability assay.
SUP-T1 = test: cells; settings: Homo sapiens;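 also: growth inhibition of human SUP-T1 cells, read out as cell viability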
Description: SANGER: Inhibition of human SUP-T1 cell growth in a cell viability assay.

SW626 = test: cells; settings: Homo sapiens;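 also: growth inhibition of SW626 cells, measured with a cell viability assay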
Description: SANGER: Inhibition of human SW626 cell growth in a cell viability assay.

SW837 = test: cells; settings: Homo sapiens;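 also: growth inhibition of SW837 cells, determined with a cell viability assay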
Description: SANGER: Inhibition of human SW837 cell growth in a cell viability assay.

T-24 = test: cells; settings: Homo sapiens;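 also: growth inhibition of T-24 cells, read out with a cell viability assay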
Description: SANGER: Inhibition of human T-24 cell growth in a cell viability assay.

T98G = test: cells; settings: Homo sapiens;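 also: growth inhibition of T98G cells, read out by a cell viability assay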
Description: SANGER: Inhibition of human T98G cell growth in a cell viability assay.

786-0 = test: cells; settings: Homo sapiens
Description: SANGER: Inhibition of human 786-0 cell growth in a cell viability assay.

8505C = test: cells; settings: Homo sapiens
Description: SANGER: Inhibition of human 8505C cell growth in a cell viability assay.

A-375 = test: cells; settings: Homo sapiens;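 also: growth inhibition of A375 cells, read out with a cell viability assay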
Description: SANGER: Inhibition of human A375 cell growth in a cell viability assay.

A-427 = test: cells; settings: Homo sapiens;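 also: growth inhibition of human A-427 cells, read out by a cell viability assay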
Description: SANGER: Inhibition of human A427 cell growth in a cell viability assay.

A-431 = test: cells; settings: Homo sapiens;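 also: growth inhibition of A-431 cells, determined with a cell viability read-out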
Description: SANGER: Inhibition of human A431 cell growth in a cell viability assay.

A673 = test: cells; settings: Homo sapiens;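 also: growth inhibition of human A673 cells, read out through a cell viability assay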
Description: SANGER: Inhibition of human A673 cell growth in a cell viability assay.

BC-3 = test: cells; settings: Homo sapiens;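 also: cell viability assay measuring growth inhibition of human BC-3 cells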
Description: SANGER: Inhibition of human BC-3 cell growth in a cell viability assay.

BHT-101 = test: cells; settings: Homo sapiens
Description: SANGER: Inhibition of human BHT-101 cell growth in a cell viability assay.

BHY = test: cells; settings: Homo sapiens;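 also: cell growth inhibition read out by a viability assay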
Description: SANGER: Inhibition of human BHY cell growth in a cell viability assay.

BL-41 = test: cells; settings: Homo sapiens;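 also: growth inhibition of human BL-41 cells, read out with a cell viability assay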
Description: SANGER: Inhibition of human BL-41 cell growth in a cell viability assay.

CAL-33 = test: cells; settings: Homo sapiens;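 also: growth inhibition of CAL-33 cells, read out with a cell viability assay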
Description: SANGER: Inhibition of human CAL-33 cell growth in a cell viability assay.

CAL-54 = test: cells; settings: Homo sapiens;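 also: growth inhibition of CAL-54 cells, read out by a viability measurement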
Description: SANGER: Inhibition of human CAL-54 cell growth in a cell viability assay.

TUR = test: cells; settings: Homo sapiens;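 also: growth inhibition of human TUR cells, read out with a cell viability assay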
Description: SANGER: Inhibition of human TUR cell growth in a cell viability assay.

WM-115 = test: cells; settings: Homo sapiens
Description: SANGER: Inhibition of human WM-115 cell growth in a cell viability assay.

YT = test: cells; settings: Homo sapiens
Description: SANGER: Inhibition of human YT cell growth in a cell viability assay.

CHL-1 = test: cells; settings: Homo sapiens;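 also: cell growth inhibition, read out with a cell viability assay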
Description: SANGER: Inhibition of human CHL-1 cell growth in a cell viability assay.

CHP-126 = test: cells; settings: Homo sapiens
Description: SANGER: Inhibition of human CHP-126 cell growth in a cell viability assay.

CC(O)(CS(=O)(=O)c1ccc(F)cc1)C(=O)Nc1ccc(C#N)c(C(F)(F)F)c1 (centres undefined) [BICALUTAMIDE]
IC50 (COR-L105): > 1020 nM
IC50 (CP50-MEL-B): > 1020 nM
IC50 (DBTRG-05MG): > 1020 nM
IC50 (DMS-273): > 1020 nM
IC50 (DOK): > 1020 nM
IC50 (EHEB): > 1020 nM
IC50 (FTC-133): > 1020 nM
IC50 (G-361): > 1020 nM
IC50 (HCC1395): > 1020 nM
IC50 (Hs-578T): > 1020 nM
IC50 (KYSE-140): > 1020 nM
IC50 (LN-405): > 1020 nM
IC50 (LU-99A): > 1020 nM
IC50 (MDA-MB-453): > 1020 nM
IC50 (MHH-CALL-2): > 1020 nM
IC50 (MHH-ES-1): > 1020 nM
IC50 (MKN-28): > 1020 nM
IC50 (MKN-7): > 1020 nM
IC50 (MRK-nu-1): > 1020 nM
IC50 (NCCIT): > 1020 nM
IC50 (NCI-H1436): > 1020 nM
IC50 (NCI-H1573): > 1020 nM
IC50 (NCI-H1651): > 1020 nM
IC50 (NCI-H1694): > 1020 nM
IC50 (NCI-H187): > 1020 nM
IC50 (NCI-H1993): > 1020 nM
IC50 (NCI-H2030): > 1020 nM
IC50 (NCI-H2342): > 1020 nM
IC50 (NCI-H520): > 1020 nM
IC50 (NCI-H524): > 1020 nM
IC50 (NCI-H661): > 1020 nM
IC50 (NCI-H716): > 1020 nM
IC50 (NUGC-3): > 1020 nM
IC50 (OE33): > 1020 nM
IC50 (Panc1005): > 1020 nM
IC50 (REH): > 1020 nM
IC50 (RL): > 1020 nM
IC50 (Raji): > 1020 nM
IC50 (SBC-5): > 1020 nM
IC50 (SK-MEL-28): > 1020 nM
IC50 (SK-MM-2): > 1020 nM
IC50 (SKG-IIIa): > 1020 nM
IC50 (SU-DHL-1): > 1020 nM
IC50 (SUP-T1): > 1020 nM
IC50 (SW626): > 1020 nM
IC50 (SW837): > 1020 nM
IC50 (T-24): > 1020 nM
IC50 (T98G): > 1020 nM
IC50 (786-0): > 1020 nM
IC50 (8505C): > 1020 nM
IC50 (A-375): > 1020 nM
IC50 (A-427): > 1020 nM
IC50 (A-431): > 1020 nM
IC50 (A673): > 1020 nM
IC50 (BC-3): > 1020 nM
IC50 (BHT-101): > 1020 nM
IC50 (BHY): > 1020 nM
IC50 (BL-41): > 1020 nM
IC50 (CAL-33): > 1020 nM
IC50 (CAL-54): > 1020 nM
IC50 (TUR): > 1020 nM
IC50 (WM-115): > 1020 nM
IC50 (YT): > 1020 nM
IC50 (CHL-1): > 1020 nM
IC50 (CHP-126): > 1020 nM

CC(C)=CC[C@@H](O)C1=CC(=O)c2c(O)ccc(O)c2C1=O [SHIKONIN]
IC50 (COR-L105): 230 nM
IC50 (CP50-MEL-B): 1430 nM
IC50 (DBTRG-05MG): 611 nM
IC50 (DMS-273): 396 nM
IC50 (DOK): 5190 nM
IC50 (EHEB): 2090 nM
IC50 (FTC-133): 5740 nM
IC50 (G-361): 473 nM
IC50 (HCC1395): 15700 nM
IC50 (Hs-578T): 6220 nM
IC50 (KYSE-140): 374 nM
IC50 (LN-405): 6910 nM
IC50 (LU-99A): 1300 nM
IC50 (MDA-MB-453): 2520 nM
IC50 (MHH-CALL-2): 715 nM
IC50 (MHH-ES-1): 689 nM
IC50 (MKN-28): 617 nM
IC50 (MKN-7): 2210 nM
IC50 (MRK-nu-1): 102 nM
IC50 (NCCIT): 517 nM
IC50 (NCI-H1436): 604 nM
IC50 (NCI-H1651): > 16000 nM
IC50 (NCI-H1694): 840 nM
IC50 (NCI-H187): 2360 nM
IC50 (NCI-H1993): 2940 nM
IC50 (NCI-H2030): 563 nM
IC50 (NCI-H2342): 134 nM
IC50 (NCI-H520): 1350 nM
IC50 (NCI-H524): > 16000 nM
IC50 (NCI-H661): 5430 nM
IC50 (NCI-H716): > 16000 nM
IC50 (NUGC-3): 765 nM
IC50 (OE33): 1810 nM
IC50 (Panc1005): 416 nM
IC50 (REH): 147 nM
IC50 (RL): > 16000 nM
IC50 (Raji): 631 nM
IC50 (SBC-5): 215 nM
IC50 (SK-MEL-28): > 16000 nM
IC50 (SK-MM-2): 499 nM
IC50 (SKG-IIIa): 4390 nM
IC50 (SU-DHL-1): 499 nM
IC50 (SUP-T1): 1820 nM
IC50 (SW626): 635 nM
IC50 (SW837): > 16000 nM
IC50 (T-24): 2460 nM
IC50 (T98G): 1080 nM
IC50 (786-0): 344 nM
IC50 (8505C): 3100 nM
IC50 (A-375): 311 nM
IC50 (A-427): 18 nM
IC50 (A-431): 107 nM
IC50 (A673): 1220 nM
IC50 (BC-3): 926 nM
IC50 (BHT-101): 1250 nM
IC50 (BHY): 564 nM
IC50 (BL-41): 483 nM
IC50 (CAL-33): 2000 nM
IC50 (CAL-54): 1420 nM
IC50 (TUR): 466 nM
IC50 (WM-115): 10600 nM
IC50 (YT): 384 nM
IC50 (CHL-1): 168 nM
IC50 (CHP-126): 695 nM
